Assay results published in US11413266B2, “Use of cannabinoids in the treatment of inflammatory skin diseases” (GW Pharma Limited, priority 2015, dated 2022).

How the values were obtained:
[1] = tested on: human epidermal keratinocytes; experiment: Summary score, UVB-induced inflammation model (solar dermatitis); assay type: cell-based; conditions: sum of +1 anti-inflammatory, 0 no effect, −1 pro-inflammatory, Table 2
IL8 [2] = experiment: UVB-induced IL8 release in NHEK keratinocytes, ELISA; assay type: cell-based, human; conditions: NHEKs; only at given (mostly lower) concentrations
IL8 [3] = experiment: PolyIC-induced IL8 release in NHEK keratinocytes, ELISA; assay type: cell-based, human; conditions: NHEKs; concentration not singled out (0.3 and 3 μM tested)
IL8 [4] = experiment: UVB-induced IL8 release in HaCaT keratinocytes, ELISA; assay type: cell-based, human
IL6 [5] = experiment: PolyIC-induced IL6 release in NHEK keratinocytes, ELISA; assay type: cell-based, human; conditions: NHEKs; concentration not singled out (0.3 and 3 μM tested)
IL6 [6] = experiment: UVB-induced IL6 release in NHEK keratinocytes, ELISA; assay type: cell-based, human; conditions: NHEKs; higher concentrations
IL6 [7] = experiment: UVB-induced IL6 mRNA expression in HaCaT keratinocytes, RT-qPCR; assay type: cell-based, human
[8] = tested on: human epidermal keratinocytes; experiment: Summary score, TLR3-induced inflammation model (microbial infection-induced dermatitis); assay type: cell-based; conditions: sum of +1 anti-inflammatory, 0 no effect, −1 pro-inflammatory, Table 1
MCP-2 = MCP-2 ELISA in supernatants of poly-(I:C)-stimulated HaCaT cells; assay type: cell-based, human; conditions: for MCP-2 production: 6 h
HPV-Ker keratinocytes = experiment: Summary score, SEB/TSLP-induced inflammation model (atopic dermatitis); assay type: cell-based, human; conditions: for SCORE: sum of +1 anti-inflammatory, 0 no effect, −1 pro-inflammatory, Table 3; for Overall action in the SEB/TSLP-induced inflammation model: conclusion on Table 3
IL8 [9] = experiment: SEB/TSLP-induced IL8 release in HPV-Ker keratinocytes, ELISA; assay type: cell-based, human; conditions: lower concentrations
IL6 [10] = experiment: UVB-induced IL6 release in HaCaT keratinocytes, ELISA; assay type: cell-based, human
[11] = tested on: DNFB-induced allergic contact dermatitis (ACD); experiment: DNFB-induced allergic contact dermatitis (ACD) in mice, ear swelling; assay type: in vivo
Method: A total of 10 animals per group were used in the experiments described here.
Briefly, DNFB was diluted in acetone/olive oil (4:1 by vol.) immediately before use and eight-ten week-old female C57BL/6J mice were sensitized by painting 50 μl of 0.2% DNFB on the shaved abdomen on two consecutive days. Then, mice were challenged by painting 10 μl of 0.3% DNFB on both sides of one ear on day 5.
Ear swelling was measured 24, 48 and 72 h after this first challenge by measuring the difference in ear thickness between the unchallenged and the challenged ear using an engineer's micrometer. CBD (2.5, -5- and 10 mg·kg-1) was administered intraperitoneally (i.p.) on day 5 (the day of the first challenge with DNFB), 6 and, 7 after the initial sensitization with DNFB. CBD was dissolved in DMSO and Tween-20 1%.
For the determination of MCP-2, endocannabinoids, PEA and OEA, group means were compared using the one-way ANOVA followed by Newman-Keuls multiple comparison test or the Student's t-test. For the determination of cell viability, group means were compared using the Student's t-test. All determinations were performed at least in triplicate. For the determination of ear thickness, group means were compared using the one-way ANOVA followed by Tukey-Kramer multiple comparison test (n=10).

human sebocytes = conditions: Oláh et al., 2014; cited from earlier work
AEA = AEA levels in poly-(I:C)-stimulated HaCaT cells (LC-APCI-MS); assay type: cell-based, human; conditions: CBD 20 μM, 6 h
Method: (§1) HaCaT cells were plated into six-well culture plates at a cell density of 9×10^5 cells per well, and after 1 day were stimulated with poly-(I:C) (100 μg·ml-1) and treated with CBD (20 μM) or vehicle, and incubated for 6 h at 37° C. in 5% CO2.
(§2) After 6 h the resulting cells and supernatants were subjected to measurement of endocannabinoids such as N-arachidonoyl-ethanolamine (anandamide, AEA) and 2-arachidonoyl-glycerol (2-AG), and related N-acylethanolamines such as PEA and N oleoylethanolamine (OEA).
(§3) Cells and supernatants were homogenized in a solution of chloroform/methanol/Tris-HCl 50 mM pH 7.4 (2:1:1 by vol.) containing 10 pmol of [2H]8-AEA, and 5 pmol of [2H]5-2-AG, [2H]4-PEA and [2H]2-OEA as internal deuterated standards. The lipid-containing organic phase was pre-purified by open-bed chromatography on silica gel, and fractions obtained by eluting the column with a solution of chloroform/methanol (90:10 by vol.) were analyzed by liquid chromatography-atmospheric pressure chemical ionization-mass spectrometry (LC-APCI-MS) by using a Shimadzu HPLC apparatus (LC-10ADVP) coupled to a Shimadzu (LCMS-2020) quadrupole MS via a Shimadzu APCI interface. […]

OEA = OEA levels in poly-(I:C)-stimulated HaCaT cells (LC-APCI-MS); assay type: cell-based, human; conditions: CBD 20 μM, 6 h
Method: as §1, §2, §3

2-AG = 2-AG levels in poly-(I:C)-stimulated HaCaT cells (LC-APCI-MS); assay type: cell-based, human; conditions: CBD 20 μM, 6 h
Method: as §1, §2, §3

IL8 [12] = experiment: UVB-induced IL8 mRNA expression in HaCaT keratinocytes, RT-qPCR; assay type: cell-based, human
HaCaT cells = experiment: Cell viability of HaCaT cells (MTT); assay type: cell-based, human; conditions: 20 μM
Method: Cell viability was measured after 6 h in HaCaT cells treated with CBD (20 μM) or vehicle by using the 3-(4,5-dimethylthiazol-2yl)-2,5-diphenyl tetrazolium bromide (MTT) colorimetric assay.
Briefly, after 6 h HaCaT cells were incubated with MTT (5 mg·ml-1) for 3 h at 37° C. in 5% CO2. After 3 h HaCaT cells were lysed with DMSO and incubated for 6 h at 37° C. in 5% CO2.
Absorbance was measured at 630 nm. Results are expressed as % of cell viability, where optical density values from vehicle-treated cells were defined as 100% of cell viability.

[13] = 20 μM, poly-(I:C)-stimulated HaCaT

| Structure (SMILES) | SCORE ([1]; 0.3 μM) | SCORE ([1]; 3 μM) | UVB-upregulated expression of IL8 (IL8 [2]) | PolyIC-induced elevated release of IL8 (IL8 [3]) | UVB-upregulated IL8 (ELISA) (IL8 [4]; 3 μM) | PolyIC-induced elevated release of IL6 (IL6 [5]) | UVB-upregulated IL6 (RT-qPCR) (IL6 [7]; 0.3 μM) | SCORE ([8]; 0.3 μM) | SCORE ([8]; 3 μM) | MCP-2 production (MCP-2; [13]) | SCORE (HPV-Ker keratinocytes; 0.3 μM) | SCORE (HPV-Ker keratinocytes; 3 μM) | Overall action in the SEB/TSLP-induced inflammation model (HPV-Ker keratinocytes) | SEB/TSLP-induced up-regulation of IL8 release (IL8 [9]) | UVB-upregulated IL6 (ELISA) (IL6 [10]; 3 μM) | UVB-upregulated IL8 (ELISA) (IL8 [4]; 0.3 μM) | UVB-upregulated IL8 (RT-qPCR) (IL8 [12]; 0.3 μM) | UVB-upregulated IL8 (RT-qPCR) (IL8 [12]; 3 μM) | also measured |
| --- | --- | --- | --- | --- | --- | --- | --- | --- | --- | --- | --- | --- | --- | --- | --- | --- | --- | --- | --- |
| CCCCCc1cc(O)c(C/C=C(\C)CCC=C(C)C)c(O)c1 [CBG, Cannabigerol] | 2 | 3 | significantly suppress | dose-dependent suppression | pro-inflammatory effects | dose-dependent suppression | anti-inflammatory effects | 5 | 9 | able to reduce | 0 | 1 | most effective | did not induce any significant effect | anti-inflammatory effects |  |  |  | UVB-upregulated IL6 (IL6 [6]): pro-inflammatory effects; UVB-upregulated IL6 (RT-qPCR) (IL6 [7]; 3 μM): anti-inflammatory effects; MCP-2 production (MCP-2; 5 μM, poly-(I:C)-stimulated HaCaT): no effect; MCP-2 production (MCP-2; 10 μM, poly-(I:C)-stimulated HaCaT): no effect |
| C=C(C)[C@@H]1CCC(C)=C[C@H]1c1c(O)cc(CCCCC)cc1O [CBD, Cannabidiol] | 5 | 1 |  | dose-dependent suppression |  | dose-dependent suppression | anti-inflammatory effects | 5 | 8 | maximum effect | −1 | 1 |  |  | anti-inflammatory effects | anti-inflammatory effects | anti-inflammatory effects | pro-inflammatory effects | ear thickness ([11]; 2.5 mg·kg-1 i.p.): did not show any statistically significant effect; ear thickness ([11]; 5 mg·kg-1 i.p.): did not show any statistically significant effect; ear thickness ([11]; 10 mg·kg-1 i.p. on day 5, 6 and 7, 48 h after first challenge, vs control mice): reduced; ear thickness ([11]; 10 mg·kg-1 i.p. on day 5, 6 and 7, 72 h after first challenge, vs control mice): reduced; anti-acne effects (human sebocytes): exerted anti-acne effects; AEA levels, increase compared to poly-(I:C)-stimulated HaCaT cells (AEA): −2.7 fold; AEA levels, increase compared to vehicle-treated HaCaT cells (AEA): −8 fold; OEA levels (OEA): No consistent effect; 2-AG levels (2-AG): No consistent effect; MCP-2 protein levels (MCP-2; 1, 5, 10 and 20 μM, poly-(I:C) 100 μg·ml-1, 6 h, vs vehicle): strong concentration-dependent reduction; MCP-2 protein levels (MCP-2; compound alone, 20 μM, absence of poly-(I:C), vs vehicle-treated HaCaT, data not shown): no significant variation; potency in the inhibition of MCP-2 chemokine production relative to other phytocannabinoids tested (MCP-2; poly-(I:C)-stimulated keratinocytes): more potent; cytotoxicity (HaCaT cells): not cytotoxic |
| C=C(C)[C@@H]1CCC(C)=C[C@H]1c1c(O)cc(CCCCC)c(C(=O)O)c1O [CBDA, Cannabidiolic acid] | 1 | −1 | significantly suppress | dose-dependent suppression | pro-inflammatory effects | dose-dependent suppression | pro-inflammatory effects | 7 | 10 |  | 0 | 1 | most effective | did not induce any significant effect |  | pro-inflammatory effects | pro-inflammatory effects | pro-inflammatory effects | MCP-2 protein levels (MCP-2; all tested at 5, 10 and 20 μM, poly-(I:C)-stimulated HaCaT, data not shown): No effect; UVB-upregulated IL6 (ELISA) (IL6 [10]; 0.3 μM): pro-inflammatory effects |
